Results reported in patent US10472635B2, “Methods of treating brain edema” (priority 2015, dated 2019).
Read-outs that look alike come from different tables or passages of the source.

What was measured:
NKCC1 = biological target: T1, NKCC1 (Homo sapiens, UniProt P55011); details: cited from earlier work
T1 sequence (P55011 1-1212): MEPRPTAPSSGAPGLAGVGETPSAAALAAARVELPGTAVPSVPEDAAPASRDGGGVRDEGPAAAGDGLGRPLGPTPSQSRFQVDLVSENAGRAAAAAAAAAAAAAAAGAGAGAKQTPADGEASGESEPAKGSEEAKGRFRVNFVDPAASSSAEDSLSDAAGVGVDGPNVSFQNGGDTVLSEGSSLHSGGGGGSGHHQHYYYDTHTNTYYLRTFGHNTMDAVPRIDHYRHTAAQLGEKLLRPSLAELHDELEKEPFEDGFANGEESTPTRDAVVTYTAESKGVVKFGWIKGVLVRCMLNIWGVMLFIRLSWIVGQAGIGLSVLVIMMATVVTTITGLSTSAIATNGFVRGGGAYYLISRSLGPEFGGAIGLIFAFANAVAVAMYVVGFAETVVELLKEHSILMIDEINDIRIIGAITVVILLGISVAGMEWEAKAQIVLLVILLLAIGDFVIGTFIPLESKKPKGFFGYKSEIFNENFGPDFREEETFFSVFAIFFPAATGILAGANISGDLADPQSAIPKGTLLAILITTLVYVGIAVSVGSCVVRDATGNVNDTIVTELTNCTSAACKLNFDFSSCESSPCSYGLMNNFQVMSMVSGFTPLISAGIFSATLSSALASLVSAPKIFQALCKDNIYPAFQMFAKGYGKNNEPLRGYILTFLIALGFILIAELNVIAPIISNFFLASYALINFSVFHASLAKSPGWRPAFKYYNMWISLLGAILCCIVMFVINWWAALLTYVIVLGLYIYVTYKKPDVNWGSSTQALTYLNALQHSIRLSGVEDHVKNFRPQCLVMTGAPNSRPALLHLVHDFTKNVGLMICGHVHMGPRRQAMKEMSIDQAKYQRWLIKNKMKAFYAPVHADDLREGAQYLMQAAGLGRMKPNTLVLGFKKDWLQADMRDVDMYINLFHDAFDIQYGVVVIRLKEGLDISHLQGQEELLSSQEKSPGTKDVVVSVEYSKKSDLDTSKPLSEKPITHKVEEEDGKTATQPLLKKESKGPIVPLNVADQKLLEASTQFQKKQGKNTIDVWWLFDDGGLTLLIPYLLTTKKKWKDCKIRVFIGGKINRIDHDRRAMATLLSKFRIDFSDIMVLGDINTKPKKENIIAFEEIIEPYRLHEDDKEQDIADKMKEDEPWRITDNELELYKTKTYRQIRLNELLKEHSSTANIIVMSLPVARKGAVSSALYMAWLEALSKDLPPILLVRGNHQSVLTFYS

KCC2 = biological target: T2, KCC2 (Homo sapiens, UniProt Q9H2X9); details: cited from earlier work
T2 sequence (Q9H2X9 1-1139): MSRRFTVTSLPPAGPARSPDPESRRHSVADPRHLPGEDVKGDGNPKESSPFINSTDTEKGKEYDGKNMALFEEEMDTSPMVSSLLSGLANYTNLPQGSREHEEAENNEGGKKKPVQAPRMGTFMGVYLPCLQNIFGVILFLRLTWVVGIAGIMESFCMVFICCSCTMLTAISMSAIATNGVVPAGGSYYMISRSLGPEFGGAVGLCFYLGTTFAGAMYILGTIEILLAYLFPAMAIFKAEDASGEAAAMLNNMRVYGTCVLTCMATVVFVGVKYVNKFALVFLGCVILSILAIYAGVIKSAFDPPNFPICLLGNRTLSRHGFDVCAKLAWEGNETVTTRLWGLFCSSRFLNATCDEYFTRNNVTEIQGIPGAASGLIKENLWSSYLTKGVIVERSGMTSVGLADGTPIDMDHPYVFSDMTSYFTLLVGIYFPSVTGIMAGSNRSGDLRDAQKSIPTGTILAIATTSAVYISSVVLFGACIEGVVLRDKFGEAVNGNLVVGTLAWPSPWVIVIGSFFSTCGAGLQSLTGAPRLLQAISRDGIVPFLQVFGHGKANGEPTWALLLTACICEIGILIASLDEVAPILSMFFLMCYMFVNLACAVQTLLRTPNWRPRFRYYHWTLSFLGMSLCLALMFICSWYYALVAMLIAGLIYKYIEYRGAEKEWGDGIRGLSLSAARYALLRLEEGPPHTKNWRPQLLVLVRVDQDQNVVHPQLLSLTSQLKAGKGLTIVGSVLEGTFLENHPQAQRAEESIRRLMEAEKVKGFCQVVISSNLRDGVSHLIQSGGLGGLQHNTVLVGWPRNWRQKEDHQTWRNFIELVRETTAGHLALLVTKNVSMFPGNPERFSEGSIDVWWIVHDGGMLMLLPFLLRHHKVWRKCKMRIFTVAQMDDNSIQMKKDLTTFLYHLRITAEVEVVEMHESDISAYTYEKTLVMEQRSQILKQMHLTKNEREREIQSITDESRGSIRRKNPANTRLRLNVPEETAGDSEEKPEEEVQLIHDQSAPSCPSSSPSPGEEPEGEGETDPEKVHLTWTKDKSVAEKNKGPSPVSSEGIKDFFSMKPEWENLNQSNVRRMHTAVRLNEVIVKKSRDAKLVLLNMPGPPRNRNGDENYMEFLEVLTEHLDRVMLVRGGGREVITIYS

Pannexins, Connexins = details: cited from earlier work
Maxi-Anion Channel = details: cited from earlier work
rat hippocampal slices = test: LDH release cell death assay in hippocampal slices; format: cell-based; details: for effect on veratridine-induced cell death (LDH release): 50 μM veratridine
[1] = test system: voltage-dependent Cl^− current in layer 4 cortical neurons; test: Whole-cell voltage clamp of depolarization-activated Cl- current; format: cell-based, rat; details: depolarization to −20 mV or greater; cocktail of channel blockers; GlyH-101 by dialysis
Procedure: Electrophysiology: Whole-cell recordings were performed in the presence of antagonists of GABAA (10 μM picrotoxin), AMPA/kainite (10 μM 6-cyano-7-nitoquinoxaline-2,3-dione—CNQX), and NMDA (2R-amino-5-phosphonovaleric acid—APV) receptors. 60 μM cadmium, 50 μM nickel and 100 μM 4AP (4-aminopyridine) were used to block voltage-gated calcium channels and A-type potassium channels. Whole-cell voltage-clamp recordings from cortical neurons were carried out at room temperature while the recording chamber was perfused with ACSF at 1-1.5 ml min-1. Recordings were made using a MultiClamp 700B amplifier controlled by Clampex 10.2 via a Digidata 1440A data acquisition system with 3-5M ? glass electrodes. The pipette solution containing (in m ? ): 108 CsCl, 8 TEA-Cl, 8 NaGluc, 1 CsEGTA, 4 K-ATP, 0.3 Na-GTP, 10 Hepes, 2MgCl2 (pH 7.2 with CsOH, 286 mosmol 1-1). Normal ACSF contained (in mM): 126 NaCl, 26 NaHCO3, 10 glucose, 2 MgCl2, 1.25 NaH2PO4, 2.5 KCl, 2.0 CaCl2 (pH 7.25, 310 mosmol 1-1). NaCl was replaced with 126 mM Na-isethionate in the low-chloride ACSF. Recordings where the series resistance varied more than 10% were rejected. Data were analyzed with Clampfit 10.0.
The opening of Na^+ permeable channels causes both [Na^+]i accumulation and neuronal depolarization. […] However progressive accumulation of extracellular K^+ could lead to further depolarization of the membrane. […]

[2] = test system: cortical neurons in brain slices; test: Neuronal swelling imaging assay in brain slices (cross sectional area of CoroNa-stained soma, two-photon); format: cell-based, rat; details: for magnitude of neuronal swelling: veratridine-induced, blockers present, without vs with pre-applied picrotoxin (100 μM)
CaCC = details: cited from earlier work
[3] = test system: neuronal [Na^+]i in brain slices; test: Neuronal [Na+]i by CoroNa Green fluorescence / two-photon FLIM; format: cell-based, rat
VRAC = details: cited from earlier work
CLC-2 = CLC-2 (Homo sapiens, UniProt P51788); details: cited from earlier work
[4] = 22-24 °C, antagonist bath applied and in puffing pipette, DIDS 250 μM, NPPB 200 μM, TTX 1 μM
[5] = pressure ejection, Cd2+, CNQX, picrotoxin present, d-APV with veratridine, TTX with NMDA

Chain of CLC-2 (P51788 whole entry): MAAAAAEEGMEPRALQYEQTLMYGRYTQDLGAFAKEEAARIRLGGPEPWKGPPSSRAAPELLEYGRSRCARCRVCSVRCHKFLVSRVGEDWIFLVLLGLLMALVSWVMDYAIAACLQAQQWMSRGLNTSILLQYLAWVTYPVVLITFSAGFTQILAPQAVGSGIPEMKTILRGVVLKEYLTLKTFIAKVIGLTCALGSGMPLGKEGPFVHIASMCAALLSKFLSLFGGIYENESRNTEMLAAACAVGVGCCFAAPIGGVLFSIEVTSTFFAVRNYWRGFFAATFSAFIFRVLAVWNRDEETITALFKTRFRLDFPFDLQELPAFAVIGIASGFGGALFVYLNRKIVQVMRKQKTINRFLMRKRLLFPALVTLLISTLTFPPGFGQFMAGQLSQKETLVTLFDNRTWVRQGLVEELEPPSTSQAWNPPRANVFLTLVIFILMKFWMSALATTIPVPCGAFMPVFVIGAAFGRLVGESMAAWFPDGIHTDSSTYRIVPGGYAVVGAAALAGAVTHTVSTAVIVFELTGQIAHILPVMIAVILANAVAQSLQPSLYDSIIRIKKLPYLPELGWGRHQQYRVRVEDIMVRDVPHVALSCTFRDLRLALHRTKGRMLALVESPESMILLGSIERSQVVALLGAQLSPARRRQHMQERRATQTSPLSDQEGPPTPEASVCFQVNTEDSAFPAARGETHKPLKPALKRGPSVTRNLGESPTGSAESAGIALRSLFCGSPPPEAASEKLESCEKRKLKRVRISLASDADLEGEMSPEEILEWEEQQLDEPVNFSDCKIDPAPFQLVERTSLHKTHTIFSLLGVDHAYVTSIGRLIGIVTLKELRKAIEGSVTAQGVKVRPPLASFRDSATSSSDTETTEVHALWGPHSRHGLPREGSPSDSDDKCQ

Compound: CCCCNc1cc(C(=O)O)cc(S(N)(=O)=O)c1Oc1ccccc1 [Bumetanide, bumetanide]
- Ki (NKCC1): ~0.1 µM
- Ki (KCC2): 25 to 50 µM

Compound: CC1(C)[C@@H](OC(=O)CCC(=O)O)CC[C@]2(C)[C@H]3C(=O)C=C4[C@@H]5C[C@@](C)(C(=O)O)CC[C@]5(C)CC[C@@]4(C)[C@]3(C)CC[C@@H]12 [CBX, carbenoxelone]
- concentration (antagonist sensitivity of channel/transporter) (Pannexins, Connexins): 100 µM

Compound: [Gd+3] [Gd^3+]
- concentration (antagonist sensitivity of channel/transporter) (Maxi-Anion Channel): 30 to 50 µM

Compound: O=C(CNc1ccc2ccccc2c1)N/N=C/c1cc(Br)c(O)c(Br)c1O [GlyH-101]
- effect on veratridine-induced cell death (LDH release) (rat hippocampal slices): profoundly inhibited
- effect on non-inactivating Cl- current elicited by depolarization [1]: inhibit
- effect on veratridine-induced neuronal swelling [2, 4]: profoundly inhibited

Compound: O=C(O)c1cccnc1Nc1cccc(C(F)(F)F)c1 [NFA, niflumic acid]
- concentration (antagonist sensitivity of channel/transporter) (CaCC): 50 to 100 µM

Compound: CN[C@H](CC(=O)O)C(=O)O [NMDA, N-Methyl-D-aspartic acid]
- LDH release (cell death) on application (rat hippocampal slices; 15 min application, LDH after 90 min, veratridine 50 μM, NMDA 100 μM in 0 mM Ca2+, 2 mM EGTA, CNQX, picrotoxin, Cd2+ present): rapid and significant increase
- neuronal cross sectional area after NMDAR activation ([2]; extracellular Ca2+ free solution (0 mM Ca2+, 2 mM EGTA), TTX, Cd2+, CNQX, picrotoxin present): 161.60±10.55 % of baseline
- neuronal cross sectional area after NMDAR activation ([2]; extracellular Na+ replaced with NMDG (152 mM to 26 mM), normal Ca2+): 86.7 % of baseline
- change in neuronal cell volume on application [2, 5]: increase in neuronal cell volume
- change in neuronal [Na+]i on application [3, 5]: significant increase

Compound: O=C(O)c1cc([N+](=O)[O-])ccc1NCCCc1ccccc1 [NPPB]
- effect on veratridine-induced cell death (LDH release) (rat hippocampal slices): no effect
- effect on NMDA-induced cell death (LDH release), Ca2+-independent (rat hippocampal slices; NMDA in Ca2+ free extracellular solution): blocked by DIDS but not NPPB
- concentration (antagonist sensitivity of channel/transporter) (CaCC): 100 µM
- effect on veratridine-induced neuronal swelling [2, 4]: no protection
- concentration (antagonist sensitivity of channel/transporter) (VRAC): 40 to 100 µM
- concentration (antagonist sensitivity of channel/transporter) (Maxi-Anion Channel): 100 µM

Compound: NC1=N[C@H](O)[C@H]2[C@H]3O[C@]4(O)O[C@@H]([C@@H](O)[C@@]2(N1)[C@@H]4O)[C@]3(O)CO [TTX, Tetrodotoxin]
- effect on veratridine-induced neuronal swelling [2]: blocked
- effect on veratridine-induced [Na+]i increase [3]: blocked

Compound: [Zn] [Zinc]
- concentration (antagonist sensitivity of channel/transporter) (CLC-2): 100 µM

Compound: N[C@H](CCCP(=O)(O)O)C(=O)O [d-APV, 2R-amino-5-phosphonovaleric acid]
- effect on NMDA-induced neuronal swelling ([2]; DIDS 250 μM, 500 μM, 1 mM, d-APV 100 μM): blocked
- effect on NMDA-induced [Na+]i increase ([3]; CoroNa signal, d-APV 100 μM): blocked

Compound: COc1ccc(C(=O)O[C@H]2CC[C@@]3(C)[C@@H]4CC[C@H]5[C@]6(O)C[C@H](O)[C@@]7(O)[C@@H](CN8C[C@@H](C)CC[C@H]8[C@@]7(C)O)[C@]6(O)C[C@@]53O[C@]24O)cc1OC [veratridine]
- magnitude of neuronal swelling [2]: 161.7%
- [Na+]i (calibrated value, CoroNa FLIM) ([3]; throughout veratridine application): approximately 94.46±2.14 mM

Compound: picrotoxin
- magnitude of neuronal swelling [2]: 146.9%
